Measurements published in patent publication US9682059B2 (priority 2013, dated 2017).
Like-named read-outs stand apart in the source and are kept apart here.

How the values were obtained:
[1] = test system: Lithium-pilocarpine induced status epilepticus; assay: animal or person; format: in vivo, rat; conditions: for responders at 46 mg/kg: Rattus norvegicus, iv, read-out: Protection %; for Protection %: rat, in vivo
[2] = test system: maximal electroshock seizure; assay: animal or person; format: in vivo, mice
[3] = test system: PTZ-induced clonic seizure; assay: animal or person; format: in vivo, mice; conditions: Mus musculus, ip; for responders at 20.4 mg/kg: read-out: Protection %; for ED50: read-out: PTZ test ED50
[4] = test system: PTZ-induced clonic seizure; assay: animal or person; format: in vivo, rats; conditions: Rattus norvegicus, ip
[5] = test system: neurotoxicity (rotarod); assay: Neurotoxicity (rotarod); format: in vivo; conditions: mice, protective index
Procedure: The measurement of neurotoxicity of the test compounds was conducted by the method of Dunham and Miya [Dunham, N. W. and Miya, T. S. 1957. A note on a simple apparatus for detecting neurological deficit in rats and mice. J. Am. Pharm. Assoc. (Baltimore) 46: 208-209]. In the method, motor abilities of the test animals can be determined by observing whether the test animals can walk without falling from a rotator, thereby determining the value of neurotoxicity of each compound. […] They were pre-trained on the rotarod (Rotarod; Columbus instrument, rota-max, USA) at 6 rpm for 5 min 24 hr prior to the test. The peak time was determined by administration test material's random dose for 0.5, 1, 2, 4 hour. […] The ratio of TD50 to ED50(TD50/ED50) is called as a protective index, and useful as a parameter for comparison of pharmaceutical efficacy and neurotoxicity.

[6] = test system: Lithium-pilocarpine induced status epilepticus; assay: animal or person; format: in vivo; conditions: Rattus norvegicus, ip, 1.5 h, read-out: Protection %
[7] = test system: benzodiazepine-resistant status epilepticus; assay: animal or person; format: in vivo; conditions: Rattus norvegicus, ip, 10 min
[8] = test system: lamotrigene-resistant amygdala kindled rat; assay: animal or person; format: in vivo; conditions: ip
[9] = test system: 6 Hz-induced seizure; assay: animal or person; format: in vivo, mice; conditions: ip

Q: For C[C@@H](OC(=O)NC1CC1)[C@H](O)c1ccccc1Cl (racemic) [Compound 32, 1-(2-chlorophenyl)-1-hydroxypropyl-2-N-cyclopropylcarbamate], which responders at 46 mg/kg [1] is on record?
A: 100%

Q: What about the responders at 200 mg/kg ([2]; Mus musculus, po, read-out: Protection %) of the same compound?
A: 100%

Q: And the responders at 20.4 mg/kg [3]?
A: 16.7%

Q: For CC(C)[C@H](OC(N)=O)[C@@H](O)c1ccccc1Cl [Compound 9, 1-(2-chlorophenyl)-(8)-1-hydroxy-3-methyl-butyl-(8)-2-carbamate], which responders at 20.4 mg/kg [3] is on record?
A: 33.3%

Q: With CCCC[C@H](OC(N)=O)[C@@H](O)c1c(Cl)cccc1Cl [Compound 44, 1-(2,6-dichlorophenyl)-(S)-1-hydroxyhexyl-(S)-2-carbamate] as the compound, how does the responders at 20.4 mg/kg [3] read?
A: 33.3%

Q: For CC(C)[C@H](OC(N)=O)[C@@H](O)c1c(Cl)cccc1Cl [Compound 42, 1-(2,6-dichlorophenyl)-(S)-1-hydroxy-3-methyl-butyl-(S)-2-carbamate], which responders at 20.4 mg/kg [3] is on record?
A: 50%

Q: For C[C@@H](OC(N)=O)[C@@H](O)c1ccccc1Cl [Compound 4, 1-(2-chlorophenyl)-(S)-1-hydroxypropyl-(R)-2-carbamate], which responders at 46 mg/kg [1] is on record?
A: 100%

Q: What about the ED50 [3] of the same compound?
A: 26.7 mg/kg

Q: What about the responders at 30 mg/kg ([4]; read-out: Protection %) of the same compound?
A: 50%

Q: For CC(C)NC(=O)O[C@H](C)[C@H](O)c1ccccc1Cl (racemic) [Compound 31, 1-(2-chlorophenyl)-1-hydroxypropyl-2-N-isopropylcarbamate], which responders at 46 mg/kg [1] is on record?
A: 100%

Q: What about the responders at 20.4 mg/kg [3] of the same compound?
A: 83.3%

Q: How did the responders at 46 mg/kg [1] turn out when C[C@@H](OC(N)=O)[C@H](O)c1c(Cl)cccc1Cl [Compound 46, 1-(2,6-dichlorophenyl)-(R)-1-hydroxypropyl-(R)-2-carbamate] was run?
A: 50%

Q: And the responders at 20.4 mg/kg [3]?
A: 50%

Q: How did the “PI(TD50/ED50 in MES)” value [5] turn out when CC(OC(N)=O)C(O)c1ccccc1Cl (racemic) [Compound 3, 1-(2-chlorophenyl)-1-hydroxypropyl-2-carbamate] was run?
A: 12.0

Q: With C[C@@H](OC(N)=O)[C@H](O)c1ccc(Cl)cc1Cl [Compound 45, 1-(2,4-dichlorophenyl)-(R)-1-hydroxypropyl-(R)-2-carbamate] as the compound, how does the responders at 46 mg/kg [1] read?
A: 33.3%

Q: What about the responders at 20.4 mg/kg [3] of the same compound?
A: 16.7%

Q: What about the responders at 50 mg/kg ([4]; read-out: Protection %) of the same compound?
A: 16.7%

Q: How did the “PI(TD50/ED50 in MES)” value [5] turn out when C[C@H](OC(N)=O)[C@H](O)c1ccccc1Cl [Compound 5, 1-(2-chlorophenyl)-(R)-1-hydroxypropyl-(S)-2-carbamate] was run?
A: 3.3

Q: Which results are given for C[C@H](OC(=O)NC1CC1)[C@@H](O)c1ccccc1Cl (single isomer, unassigned) [Compound 25]?
A: responders at 60 mg/kg [6]: 100%; Protection % [1]: ^a46 (100%); responders at 20.4 mg/kg [3]: 66.7%

Q: C[C@H](OC(N)=O)[C@@H](O)c1ccc(Cl)cc1Cl [Compound 36, 1-(2,4-dichlorophenyl)-(S)-1-hydroxypropyl-(S)-2-carbamate] was tested. Which responders at 20.4 mg/kg [3] did it give?
A: 33.3%

Q: How did the ED50 [3] turn out when CC[C@H](OC(N)=O)[C@@H](O)c1ccc(Cl)cc1Cl [Compound 39, 1-(2,4-dichlorophenyl)-(S)-1-hydroxybutyl-(S)-2-carbamate] was run?
A: 24.3 mg/kg

Q: How did the responders at 20.4 mg/kg [3] turn out when CCCC[C@H](OC(N)=O)[C@@H](O)c1ccccc1Cl [Compound 12, 1-(2-chlorophenyl)-(S)-1-hydroxyhexyl-(S)-2-carbamate] was run?
A: 33.3%

Q: CCCC[C@H](OC(N)=O)[C@@H](O)c1ccc(Cl)cc1Cl [Compound 43, 1-(2,4-dichlorophenyl)-(S)-1-hydroxyhexyl-(S)-2-carbamate] was tested. Which responders at 25 mg/kg ([4]; read-out: Protection %) did it give?
A: 33.3%

Q: Which results are given for CCCNC(=O)O[C@@H](C)[C@@H](O)c1ccccc1Cl [Compound 16, 1-(2-chlorophenyl)-(S)-1-hydroxypropyl-(S)-2-N-propylcarbamate]?
A: responders at 46 mg/kg [1]: 100%; responders at 30 mg/kg ([4]; read-out: Protection %): 33.3%

Q: How did the responders at 46 mg/kg [1] turn out when C[C@H](OC(N)=O)[C@@H](O)c1ccccc1F [Compound 63, 1-(2-fluorophenyl)-(S)-1-hydroxypropyl-(S)-2-carbamate] was run?
A: 50%

Q: And the responders at 20.4 mg/kg [3]?
A: 50%

Q: C[C@H](OC(=O)NC1CC1)[C@@H](O)c1ccccc1Cl [Compound 18, 1-(2-chlorophenyl)-(S)-1-hydroxypropyl-(R)-2-N-cyclopropylcarbamate] was tested. Which Protection % [1] did it give?
A: ^a46 (66.7%)

Q: And the responders at 30 mg/kg ([4]; read-out: Protection %)?
A: 16.7%

Q: Which responders at 46 mg/kg [1] does the source give for CCC(OC(N)=O)C(O)c1ccccc1Cl (racemic) [Compound 8, 1-(2-chlorophenyl)-1-hydroxybutyl-2-carbamate] here?
A: 50%

Q: What about the responders at 20.4 mg/kg [3] of the same compound?
A: 50%

Q: Which responders at 20.4 mg/kg [3] does the source give for CCCNC(=O)O[C@@H](C)[C@@H](O)c1ccccc1Cl [Compound 23, 1-(2-chlorophenyl)-(R)-1-hydroxypropyl-(R)-2-N-propylcarbamate] here?
A: 50%

Q: How did the ED50 [7] turn out when C[C@H](OC(N)=O)[C@@H](O)c1ccccc1Cl [Compound 1, 1-(2-chlorophenyl)-(S)-1-hydroxypropyl-(S)-2-carbamate] was run?
A: 96.9 mg/kg

Q: What about the ED50 ([8]; Rattus norvegicus) of the same compound?
A: 17 mg/kg

Q: What about the “Seizure Score” value ([8]; rat, in vivo) of the same compound?
A: 2.0 ± 0.7(Control: 5.0 ± 0.0)

Q: What about the ED50 ([9]; Mus musculus) of the same compound?
A: 14.6 mg/kg

Q: And the ED50 ([9]; mouse, in vivo)?
A: 13.66 mg/kg

Q: And the “PI(TD50/ED50 in MES)” value [5]?
A: 16.8

Q: CNC(=O)O[C@@H](C)[C@@H](O)c1ccccc1Cl [Compound 15, 1-(2-chlorophenyl)-(S)-1-hydroxypropyl-(S)-2-N-methylcarbamate] was tested. Which responders at 46 mg/kg [1] did it give?
A: 100%

Q: What about the responders at 25 mg/kg ([4]; read-out: Protection %) of the same compound?
A: 33.3%

Q: With CCCCC(OC(N)=O)C(O)c1ccccc1Cl (racemic) [Compound 14, 1-(2-chlorophenyl)-1-hydroxyhexyl-2-carbamate] as the compound, how does the responders at 20.4 mg/kg [3] read?
A: 16.7%

Q: Which results are given for C[C@H](OC(N)=O)[C@@H](O)c1cccc(Cl)c1Cl [Compound 38, 1-(2,3-dichlorophenyl)-(S)-1-hydroxypropyl-(S)-2-carbamate]?
A: responders at 46 mg/kg [1]: 50%; responders at 20.4 mg/kg [3]: 50%

Q: For CNC(=O)O[C@H](C)[C@H](O)c1ccccc1Cl (racemic) [Compound 29, 1-(2-chlorophenyl)-1-hydroxypropyl-2-N-methylcarbamate], which responders at 20.4 mg/kg [3] is on record?
A: 33.3%

Q: What does the source list for C[C@H](OC(N)=O)[C@@H](O)c1c(Cl)cccc1Cl [Compound 37, 1-(2,6-dichlorophenyl)-(S)-1-hydroxypropyl-(S)-2-carbamate]?
A: responders at 46 mg/kg [1]: 100%; PI(TD50/ED50 in MES) [5]: 5.1; ED50 [3]: 25.7 mg/kg; responders at 30 mg/kg ([4]; read-out: Protection %): 50%

Q: How did the responders at 46 mg/kg [1] turn out when C[C@@H](OC(N)=O)[C@H](O)c1ccccc1Cl [Compound 2, 1-(2-chlorophenyl)-(R)-1-hydroxypropyl-(R)-2-carbamate] was run?
A: 50%

Q: And the “PI(TD50/ED50 in MES)” value [5]?
A: 7.3

Q: And the ED50 ([4]; read-out: PTZ test ED50)?
A: 51.9 mg/kg

Q: CCCNC(=O)O[C@H](C)[C@H](O)c1ccccc1Cl (racemic) [Compound 30, 1-(2-chlorophenyl)-1-hydroxypropyl-2-N-propylcarbamate] was tested. Which Protection % ([2]; mouse, in vivo) did it give?
A: 200 ^a(25%)

Q: And the responders at 20.4 mg/kg [3]?
A: 33.3%

Q: With CC[C@H](OC(N)=O)[C@@H](O)c1ccccc1I [Compound 67, 1-(2-iodophenyl)-(S)-1-hydroxybutyl-(S)-2-carbamate] as the compound, how does the responders at 46 mg/kg [1] read?
A: 100%

Q: And the ED50 [3]?
A: 23.1 mg/kg

Q: What about the responders at 30 mg/kg ([4]; read-out: Protection %) of the same compound?
A: 33.3%

Q: C[C@H](OC(N)=O)[C@@H](O)c1ccccc1I [Compound 65, 1-(2-iodophenyl)-(S)-1-hydroxypropyl-(S)-2-carbamate] was tested. Which responders at 46 mg/kg [1] did it give?
A: 100%

Q: What about the responders at 20.4 mg/kg [3] of the same compound?
A: 100%

Q: Which responders at 46 mg/kg [1] does the source give for CC[C@H](OC(N)=O)[C@@H](O)c1ccccc1Cl [Compound 6, 1-(2-chlorophenyl)-(S)-1-hydroxybutyl-(S)-2-carbamate] here?
A: 100%

Q: And the ED50 [3]?
A: 17.9 mg/kg

Q: And the responders at 30 mg/kg ([4]; read-out: Protection %)?
A: 50%

Q: How did the responders at 46 mg/kg [1] turn out when CC[C@H](OC(N)=O)[C@@H](O)c1c(Cl)cccc1Cl [Compound 40, 1-(2,6-dichlorophenyl)-(S)-1-hydroxybutyl-(S)-2-carbamate] was run?
A: 100%

Q: And the responders at 20.4 mg/kg [3]?
A: 33.3%

Q: With CCCC[C@@H](OC(N)=O)[C@H](O)c1ccccc1Cl [Compound 13, 1-(2-chlorophenyl)-(R)-1-hydroxyhexyl-(R)-2-carbamate] as the compound, how does the responders at 20.4 mg/kg [3] read?
A: 50%
